Entries after “also recorded” stand apart in the source; their conditions may differ.
Experiments:
NASH mice = test: F4/80 immunostaining of liver, inflammation area % (Test Example 3); type: in vivo; conditions: for Inflammation area %, Significant difference: Bonferroni, 5% level, tendency at 10% level; for Inflammation area % (F4/80 immunostaining), mean ± standard deviation: 8 weeks of age
From the text: A solid diet CE-2 (lipid 4.6% by weight, manufactured by CLEA Japan, Inc.) was used as a normal diet. A solid diet, High Fat Diet 32 (lipid 32.0% by weight, sucrose 6.75% by weight, manufactured by CLEA Japan, Inc.), was used as a sucrose-containing high fat diet. As a maltitol-containing high-fat diet, a special diet (lipid 32.0% by weight, maltitol 6.08% by weight; manufactured by CLEA Japan, Inc.) obtained by replacing the total amount (6.75% by weight) of sucrose in a solid diet, High Fat Diet 32, with powdered maltitol (Whole Crystalline Maltitol Ueno 60M (purity of maltitol: 90%), manufactured by Ueno Fine Chemicals Industry Ltd.) was used. Sodium hypochlorite (PURELOX-S, manufactured by OYALOX Co., Ltd.) was added to pure water prepared by Elix-UV pure water producing apparatus, to a final concentration of 0.00009%, so that pure water for use in the test was obtained. An aqueous maltitol solution was prepared by dissolving powdered maltitol (Whole Crystalline Maltitol Ueno 60M (purity of maltitol: 90%), manufactured by Ueno Fine Chemicals Industry Ltd.) in pure water to a concentration of 1.8% (weight/volume). The purity of maltitol in the aqueous maltitol solution was 1.62%. Twenty-one female SPF mice (C57BL/6J, produced by CLEA Japan, Inc.) on day 14 of pregnancy were purchased and acclimation was performed. All animals were allowed to make a natural birth and a born male was used to produce a model. In addition, the weaning was at 4 weeks after birth. Streptozotocin (Sigma-Aldrich Japan K.K.) was adjusted to a concentration of 10 mg/mL with a physiological saline solution (manufactured by Otsuka Pharmaceutical Factory, Inc.) and the solution was subcutaneously administered once to the back of 2-day-old male mice at a dose of 20 μL/mouse (200 μg/mouse). Afterwards, the mother animal took care of the baby until weaning. The weaning was on day 28±2 after birth. After the weaning, a normal diet was supplied ad libitum to animals receiving no streptozotocin (normal mice (group S1 and group 1)), and a sucrose-containing high fat diet was supplied ad libitum to animals receiving streptozotocin (NASH mice (group S2, group 2, group 3, and group 4). A normal diet was supplied ad libitum to normal mice (group 1). With respect to NASH mice, a sucrose-containing high fat diet was supplied ad libitum to the sucrose group (group 2), and a maltitol-containing high fat diet was supplied ad libitum to the maltitol-low dose group (group 3) and the maltitol-high dose group (group 4). An aqueous maltitol solution was supplied ad libitum only to the maltitol-high dose group (group 4) of 5 to 8 weeks of age, and pure water was supplied ad libitum to the groups other than group 4 of 5 to 8 weeks of age. Six male animals per group were assigned to groups S1 and S2, reared up to 5 weeks of age, and then necropsied. Eight male animals per group were assigned to groups 1, 2, 3 and 4, reared up to 8 weeks of age, and then necropsied. At scheduled necropsy of the animals of 5 or 8 weeks of age, all individuals were anesthetized with diethyl ether (manufactured by Sigma-Aldrich Japan K.K.) and a needle through which heparin sodium (Novo Heparin Injection 1000, manufactured by Mochida Pharmaceutical Co., Ltd.) had been passed was punctured to the heart to aspirate the whole blood, leading to euthanasia, followed by harvest of the organ. […]

[1] = system: C57BL/6 male mice fed high fat diet; test: Blood AST value and blood ALT value after 8-week feeding (Test Example 1); type: in vivo; set-up: key to Blood ALT value, Significant difference: *: a significant difference was observed at 1% level of significance relative to group 3
From the text: Eight-week-old C57BL/6 male mice (CLEA Japan, Inc.) were divided at random into groups (each group: four animals) and then used. As a normal diet, solid diet MF (lipid component 5.3%, manufactured by Oriental Yeast Co., Ltd.) was used. As a high-fat diet, solid diet High Fat Diet 32 (lipid component 32.0%, manufactured by CLEA Japan, Inc.) was used. As a sample water, 2.5% by weight of aqueous sucrose solution, 2.25% by weight of aqueous maltitol solution, and 4.5% by weight of aqueous maltitol solution obtained by respectively dissolving, as a test substance, sucrose (manufactured by Wako Pure Chemical Industries, Ltd.) and maltitol (Whole Crystalline Maltitol Ueno 60M, having maltitol purity of 90%, manufactured by Ueno Fine Chemicals Industry, Ltd.) in distilled water were used. Distilled water was used as a negative sample. The sample water was administered by making it available ad libitum and the amount of sample water intake was recorded. The dose of sucrose per day calculated from the concentration of the sample water and the water intake was 3 g per 1 kg of body weight. The dose of maltitol per day calculated in the same manner as above was 2.7 g per 1 kg of body weight in mice receiving 2.25% aqueous maltitol solution, and 4.5 g per 1 kg of body weight in mice receiving 4.5% aqueous maltitol solution. The diet and the sample water (test substance aqueous solution or distilled water) listed in Table 1 were administered to mice in each group, and the animals were fed for 8 weeks. After 8-week test feeding, pentobarbital of 0.5 mg/10 g of body weight was intraperitoneally administered to mice, and blood was collected from the tail vein under deep anesthesia. With respect to the serum from the collected blood sample of mice, blood AST value and blood ALT value which are each an indicator of liver function were measured using a Transaminase C-II Test Wako Kit (Wako Pure Chemical Industries, Ltd.). A significant difference test by the t-test method was performed on blood AST values, blood ALT values, and blood ketone bodies values were evaluated by performing significant difference tests on these values via t-test.

[2] = Group 4: high fat diet + 2.25% aqueous maltitol solution ad libitum, 8 weeks (2.7 g/kg/day)
[3] = Group 5: high fat diet + 4.5% aqueous maltitol solution ad libitum, 8 weeks (4.5 g/kg/day)
[4] = Group 3: high fat diet + 2.5% aqueous sucrose solution ad libitum, 8 weeks (3 g/kg/day)

| Structure (SMILES) | Inflammation area %, Significant difference (NASH mice; Group 3 (low-dose maltitol) vs sucrose group (group 2)) | Inflammation area % (F4/80 immunostaining), mean ± standard deviation (NASH mice; Group 3, low-dose maltitol: HFD32-M (maltitol 6.08%) + pure water) [%] | Inflammation area %, Significant difference (NASH mice; Group 4 (high-dose maltitol) vs sucrose group (group 2)) | Inflammation area % (F4/80 immunostaining), mean ± standard deviation (NASH mice; Group 4, high-dose maltitol: HFD32-M (maltitol 6.08%) + aqueous maltitol solution 1.62%) [%] | Blood AST value, change in words ([1]; Group 4 (2.25% aqueous maltitol solution) relative to group 3 (sucrose)) | Blood ALT value (Mean ± Standard error) [1, 2] [IU/L] | Blood AST value (Mean ± Standard error) [1, 2] [IU/L] | Blood ALT value, change in words ([1]; Group 5 (4.5% aqueous maltitol solution) compared to group 3 (sucrose)) | Blood AST value, change in words ([1]; Group 5 (4.5% aqueous maltitol solution) compared with group 1 (normal diet + distilled water)) | Blood ALT value, Significant difference ([1]; Group 5 (4.5% aqueous maltitol solution) relative to group 3 (sucrose), t-test) | Blood ALT value (Mean ± Standard error) [1, 3] [IU/L] | Blood AST value (Mean ± Standard error) [1, 3] [IU/L] | Inflammation area % (F4/80 immunostaining), mean ± standard deviation (NASH mice; Group 2, sucrose group: HFD32 (sucrose 6.75%) + pure water) [%] | Blood ALT value (Mean ± Standard error) [1, 4] [IU/L] | Blood AST value (Mean ± Standard error) [1, 4] [IU/L] |
| --- | --- | --- | --- | --- | --- | --- | --- | --- | --- | --- | --- | --- | --- | --- | --- |
| OC[C@@H](O)[C@@H](O[C@H]1O[C@H](CO)[C@@H](O)[C@H](O)[C@H]1O)[C@H](O)[C@@H](O)CO [maltitol] | No significant difference and No | 3.04 ± 1.55 | tendency to be low; also recorded: Tendency to be different | 2.46 ± 0.44 | tendency to be decreased | 41 ± 14 | 205 ± 77 | significantly decreasing the blood ALT value | decreased to a level equivalent to that in group 1 | * | 11 ± 1 | 54 ± 3 | – | – | – |
| OC[C@H]1O[C@@](CO)(O[C@H]2O[C@H](CO)[C@@H](O)[C@H](O)[C@H]2O)[C@@H](O)[C@@H]1O [sucrose, reference compound] | – | – | – | – | – | – | – | – | – | – | – | – | 3.28 ± 0.95 | 50 ± 12 | 244 ± 107 |

From US9155752B2, “Liver function-improving agent” (UENO FINE CHEMICALS INDUSTRY, LTD., priority 2012, dated 2015)
